Experimental data reported in BindingDB's records for doi:10.1021/jm051187d (Unimore, 2006).

Molecular target: Thymidylate synthase (Escherichia coli (strain K12), UniProt P0A884)
Assay: Thymidylate Synthase (TS) Assay
Method: TS was assayed spectrophotometrically in the reaction buffer solution containing (6R, 6S)-5, 10-CH2H4folate. The reaction was initiated by the addition of an amount of enzyme yielding a change in absorbance at 340 nm of 0.016/min in the absence of inhibitor. Ki values were obtained from the linear least-squares fit of the residual activity as a function of inhibitor concentration, using suitable equations for competitive inhibition.

Sequence of Thymidylate synthase (P0A884 whole entry): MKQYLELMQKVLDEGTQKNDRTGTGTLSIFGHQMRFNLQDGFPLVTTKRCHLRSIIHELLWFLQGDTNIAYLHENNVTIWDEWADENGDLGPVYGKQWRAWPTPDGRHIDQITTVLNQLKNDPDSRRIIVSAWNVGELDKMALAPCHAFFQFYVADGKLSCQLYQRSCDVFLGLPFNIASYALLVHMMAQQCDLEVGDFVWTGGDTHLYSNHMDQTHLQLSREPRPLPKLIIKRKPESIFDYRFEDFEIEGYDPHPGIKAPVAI

O=C1OC(c2cc(Br)c(O)c(Br)c2)(c2cc(Br)c(O)c(Br)c2)c2cccc3cccc1c23 [4,4-bis(3,5-dibromo-4-hydroxyphenyl)-3-oxatricyclo[7.3.1.0^{5,13}]trideca-1(12),5,7,9(13),10-pentaen-2-one]
Ki: > 11 mM
